In US6914045B2, “Glycopeptide antibiotics” (Wyeth Holdings Corporation, priority 2001, dated 2005):
Values after ≈ are worked out from the molar mass of the structure shown.

Tests used:
Test in all cases: in vitro antibacterial evaluation, MIC by broth dilution
Type in all cases: cell-based
Escherichia coli = conditions: 18 hours at 35° C.
Enterococcus sp. = conditions: broth dilution, 18 hours at 35° C.
Procedure, shortened: (§1)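 Test organisms, which included recent clinical isolates resistant to methicillin, penicillin and/or vancomycin, were inoculated at 5×10^5 CFU/mL into Muller-Hinton II […] containing antibiotic at 64-0.06 μg/mL. Minimum inhibitory concentrations were then read as the lowest level inhibiting growth.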

Streptococcus sp. = conditions: broth dilution, 18 hours at 35° C.
Procedure, shortened: as §1

Staphylococcus sp. = conditions: broth dilution, 18 hours at 35° C.
Procedure, shortened: as §1

- MIC Escherichia coli (ATCC 25922) (Escherichia coli): >128 µg/mL
- MIC Escherichia coli (GC 4559) (Escherichia coli): >128 µg/mL
- MIC Escherichia coli (GC 4560) (Escherichia coli): 32 µg/mL (≈ 22.3 µM)
- MIC Enterococcus avium (GC 4558) (Enterococcus sp.): >128 µg/mL
- MIC Enterococcus faecalis (ATCC 29212) (Enterococcus sp.): >128 µg/mL
- MIC Enterococcus faecalis (GC 2242) (Enterococcus sp.): >128 µg/mL
- MIC Enterococcus faecalis (GC 2691) (Enterococcus sp.): >128 µg/mL
- MIC Enterococcus faecalis (GC 3059) (Enterococcus sp.): >128 µg/mL
- MIC Enterococcus faecalis (GC 4552) (Enterococcus sp.): >128 µg/mL
- MIC Enterococcus faecalis (GC 4553) (Enterococcus sp.): >128 µg/mL
- MIC Enterococcus faecalis (GC 4554) (Enterococcus sp.): >128 µg/mL
- MIC Enterococcus faecalis (GC 6189) (Enterococcus sp.): >128 µg/mL
- MIC Enterococcus faecium (GC 2243) (Enterococcus sp.): >128 µg/mL
- MIC Enterococcus faecium (GC 4556) (Enterococcus sp.): >128 µg/mL
- MIC Enterococcus faecium (GC 4557) (Enterococcus sp.): 64 µg/mL (≈ 44.6 µM)
- MIC Enterococcus faecalis (ATCC 29212) (Enterococcus sp.; strain ATCC 29212): >128 µg/mL
- MIC Enterococcus faecium (GC 2243) (Enterococcus sp.; strain GC 2243): >128 µg/mL
- MIC Enterococcus faecalis (GC 4552) (Enterococcus sp.; strain GC 4552): >128 µg/mL
- MIC Enterococcus faecalis (GC 4553) (Enterococcus sp.; strain GC 4553): >128 µg/mL
- MIC Enterococcus faecalis (GC 4554) (Enterococcus sp.; strain GC 4554): >128 µg/mL
- MIC Enterococcus faecium (GC 4556) (Enterococcus sp.; strain GC 4556): >128 µg/mL
- MIC Enterococcus faecium (GC 4557) (Enterococcus sp.; strain GC 4557): 64 µg/mL (≈ 44.6 µM)
- MIC Enterococcus avium (GC 4558) (Enterococcus sp.; strain GC 4558): >128 µg/mL
- MIC Enterococcus faecalis (GC 6189) (Enterococcus sp.; strain GC 6189): >128 µg/mL
- MIC Enterococcus faecalis (GC 2242) (Enterococcus sp.; inoculum 5×10^5 CFU/mL, strain GC 2242): >128 µg/mL
- MIC Enterococcus faecalis (GC 2691) (Enterococcus sp.; inoculum 5×10^5 CFU/mL, strain GC 2691): >128 µg/mL
- MIC Enterococcus faecalis (GC 3059) (Enterococcus sp.; inoculum 5×10^5 CFU/mL, strain GC 3059): >128 µg/mL
- MIC Streptococcus agalactiae (GC 4564) (Streptococcus sp.): 128 µg/mL (≈ 89.3 µM)
- MIC Streptococcus pneumoniae (ATCC 6301) (Streptococcus sp.): 64 µg/mL (≈ 44.6 µM)
- MIC Streptococcus pneumoniae (GC 1894) (Streptococcus sp.): 32 µg/mL (≈ 22.3 µM)
- MIC Streptococcus pneumoniae (GC 4565) (Streptococcus sp.): 64 µg/mL (≈ 44.6 µM)
- MIC Streptococcus pyogenes (GC 4563) (Streptococcus sp.): 128 µg/mL (≈ 89.3 µM)
- MIC Streptococcus pneumoniae (ATCC 6301) (Streptococcus sp.; inoculum 5×10^5 CFU/mL, strain ATCC 6301): 64 µg/mL (≈ 44.6 µM)
- MIC Streptococcus pneumoniae (GC 1894) (Streptococcus sp.; inoculum 5×10^5 CFU/mL, strain GC 1894): 32 µg/mL (≈ 22.3 µM)
- MIC Streptococcus pyogenes (GC 4563) (Streptococcus sp.; inoculum 5×10^5 CFU/mL, strain GC 4563): 128 µg/mL (≈ 89.3 µM)
- MIC Streptococcus agalactiae (GC 4564) (Streptococcus sp.; inoculum 5×10^5 CFU/mL, strain GC 4564): 128 µg/mL (≈ 89.3 µM)
- MIC Streptococcus pneumoniae (GC 4565) (Streptococcus sp.; inoculum 5×10^5 CFU/mL, strain GC 4565): 64 µg/mL (≈ 44.6 µM)
- MIC Coagulase Negative Staphylococcus (GC 4547) (Staphylococcus sp.): 128 µg/mL (≈ 89.3 µM)
- MIC Coagulase Negative Staphylococcus (GC 4548) (Staphylococcus sp.): 128 µg/mL (≈ 89.3 µM)
- MIC Coagulase Negative Staphylococcus (GC 4549) (Staphylococcus sp.): 64 µg/mL (≈ 44.6 µM)
- MIC Coagulase Negative Staphylococcus (GC 4551) (Staphylococcus sp.): 128 µg/mL (≈ 89.3 µM)
- MIC Coagulase Negative Staphylococcus (GC 6257) (Staphylococcus sp.): 64 µg/mL (≈ 44.6 µM)
- MIC Staphylococcus aureus (ATCC 29213) (Staphylococcus sp.): 128 µg/mL (≈ 89.3 µM)
- MIC Staphylococcus aureus (GC 1131) (Staphylococcus sp.): >128 µg/mL
- MIC Staphylococcus aureus (GC 3051) (Staphylococcus sp.): 128 µg/mL (≈ 89.3 µM)
- MIC Staphylococcus aureus (GC 3053) (Staphylococcus sp.): >128 µg/mL
- MIC Staphylococcus aureus (GC 4541) (Staphylococcus sp.): 128 µg/mL (≈ 89.3 µM)
- MIC Staphylococcus aureus (GC 4542) (Staphylococcus sp.): 128 µg/mL (≈ 89.3 µM)
- MIC Staphylococcus aureus (GC 4544) (Staphylococcus sp.): 128 µg/mL (≈ 89.3 µM)
- MIC Staphylococcus aureus (GC 4545) (Staphylococcus sp.): 128 µg/mL (≈ 89.3 µM)
- MIC Staphylococcus aureus-SMITH (GC 4543) (Staphylococcus sp.): 128 µg/mL (≈ 89.3 µM)
- MIC Staphylococcus aureus (ATCC 29213) (Staphylococcus sp.; strain ATCC 29213): 128 µg/mL (≈ 89.3 µM)
- MIC Staphylococcus aureus (GC 1131) (Staphylococcus sp.; strain GC 1131): >128 µg/mL
- MIC Staphylococcus aureus (GC 3051) (Staphylococcus sp.; strain GC 3051): 128 µg/mL (≈ 89.3 µM)
- MIC Staphylococcus aureus (GC 3053) (Staphylococcus sp.; strain GC 3053): >128 µg/mL
- MIC Staphylococcus aureus (GC 4541) (Staphylococcus sp.; strain GC 4541): 128 µg/mL (≈ 89.3 µM)
- MIC Staphylococcus aureus (GC 4542) (Staphylococcus sp.; strain GC 4542): 128 µg/mL (≈ 89.3 µM)
- MIC Staphylococcus aureus-SMITH (GC 4543) (Staphylococcus sp.; strain GC 4543): 128 µg/mL (≈ 89.3 µM)
- MIC Staphylococcus aureus (GC 4544) (Staphylococcus sp.; strain GC 4544): 128 µg/mL (≈ 89.3 µM)
- MIC Staphylococcus aureus (GC 4545) (Staphylococcus sp.; strain GC 4545): 128 µg/mL (≈ 89.3 µM)
- MIC Coagulase Negative Staphylococcus (GC 4547) (Staphylococcus sp.; strain GC 4547): 128 µg/mL (≈ 89.3 µM)
- MIC Coagulase Negative Staphylococcus (GC 4548) (Staphylococcus sp.; strain GC 4548): 128 µg/mL (≈ 89.3 µM)
- MIC Coagulase Negative Staphylococcus (GC 4549) (Staphylococcus sp.; strain GC 4549): 64 µg/mL (≈ 44.6 µM)
- MIC Coagulase Negative Staphylococcus (GC 4551) (Staphylococcus sp.; strain GC 4551): 128 µg/mL (≈ 89.3 µM)
- MIC Coagulase Negative Staphylococcus (GC 6257) (Staphylococcus sp.; strain GC 6257): 64 µg/mL (≈ 44.6 µM)
Structure (SMILES): COc1ccc2cc(COC3C(OC4C(CO)OC(Oc5ccc(CC6NC(=O)C(C(C)c7ccccc7)NC(=O)CNC(=O)C(CO)NC(=O)C(CC7CNC(=N)N7C7OC(CO)C(O)C(O)C7O)NC(=O)C(CC7CNC(=N)N7)NC6=O)cc5)C(O)C4O)OC(CO)C(O)C3O)ccc2c1 (stereo not shown) [Example 245c]
- MIC Staphylococcus haemolyticus (GC 4546) (Staphylococcus sp.): 128 µg/mL (≈ 89.3 µM)
- MIC Staphylococcus haemolyticus (GC 4546) (Staphylococcus sp.; strain GC 4546): 128 µg/mL (≈ 89.3 µM)
